“Also recorded” adds a separate entry of the source. Like-named read-outs stand apart in the source and are kept apart here.
Key:
[1] = tested on: CD34+ cells isolated from peripheral blood of G-CSF-mobilized donors; experiment: Ex vivo culture of mobilized peripheral blood CD34+ cells with compounds, CD34/CD38 flow cytometry; assay type: cell-based, human; conditions: minimal cytokines
Procedure: CD34+ cells were isolated from cord blood or from peripheral blood of G-CSF-mobilized adult donors and cultured as follows. Mononuclear cells (MNCs) were isolated using a simple red blood cell lysis (15 minutes at room temperature using BD PharmLyse) or using Ficoll-Paque density gradient centrifugation (Jaatinen and Laine, Current Protocols Stem Cell Biol. 1:2A.1.1-2A.1.4. (2007)). The cells were then incubated with MACS CD34+ Microbead kit (Miltenyi Biotec, Auburn, Calif.) and run through a magnetic column resulting in selection for CD34+ cells. […] Human cortex neural stem cell (hcx NSC) cells were purchased from Millipore.
CD34+ cells were cultured in […] medium ([…] Technologies, Vancouver, BC, Canada) supplemented with 10% FBS, 100 ng/ml hSCF (human stem cell factor), 100 ng/ml hTPO (human thrombopoietin), 100 ng/ml hFLT-3 ligand (Human Fms-related Tyrosine Kinase 3) (Peprotech, Rocky Hill, N.J., USA) and 100 U/ml penicillin/streptomycin (Gibco). Human cortex Neural Progenitor Cell line (hcx NSC) was maintained in ReNcell medium: ReNcell NSC Maintenance medium (Millipore) supplemented with 20 ng/ml human EGF, 20 ng/ml human bFGF (Peprotech) and 100 U/ml penicillin/streptomycin. For expansion of cells targeted for cell sorting, we used the same media containing a different cytokine cocktail of 100 ng/ml SCF, TPO and 10 ng/ml IL-3.
(§1) Cells were centrifuged for 5 minutes at 200 G at 4° C. Cells were resuspended with CD34, 38 and/or 41 conjugated antibodies for 30 minutes on ice. Cells were then washed with 2 ml of PBS and centrifuged for 5 minutes at 200 G at 4° C. The final pellet was resuspended using 300 μl of 2% formalin.
CD34+ cells isolated from peripheral blood of G-CSF-mobilized donors were cultured for 11 days with minimal cytokines and the 4 chemical cocktail (C6FZ). […] The population bearing CD34+/CD38− is associated with long-term repopulating HSCs.
CD34+ cells isolated from the peripheral blood of G-CSF-mobilized donors were next cultured for 11 days with minimal cytokines and the individual compounds, C, 6, F and Z (FIG. 13).

bone marrow CD34+ cells = tested on: bone marrow CD34+ cells
Procedure: 616452 (also called RepSox), was purchased separately from Biovision and Millipore. […] A fresh aliquot of the chemical was used at every media change and the final concentration in media is 10 μM.
as §1
Flow cytometry study was used to analyze the immunophenotype of cultured cells. As mature, large megakaryocytes may not be detectable by flow cytometry, bone marrow CD34+ cells were cultured for 4 days in order to detect younger, small megakaryocytes. […] However, flow analysis of megakaryocytes is known to be misleading due to the sheer size of the megakaryocytes, which can have a diameter ranging from 20 um to 120 um.

[2] = tested on: CD34+ cells isolated from human umbilical CB; assay type: cell-based
Procedure: Megakaryocytes derived from CB in vitro are usually smaller than megakaryocytes derived from bone marrow or mobilized peripheral blood from adults. Small megakaryocyte size may contribute to delayed platelet engraftment when cord blood is used for bone marrow transplantation. To test whether 616452 is able to increase fetal/neonatal megakaryocyte size and ploidy, CD34+ cells isolated from human umbilical CB were cultured in StemSpan SFEM containing SCF, TPO and Flt-3 Ligand. CB CD34+ cells in the presence of TPO after 4 or 8 day culture, were morphologically consistent of a relative homogenous population of small cells (FIG. 19A) and megakaryocytic features such as large nuclear size and cytoplasmic mass were hardly detectable.
One of the unique characteristics of megakaryocytes is the ploidy development of their nuclei, which can be easily measured using propidium iodide (PI), a fluorescent intercalating agent that binds to nucleic acids. Megakaryocyte (Mk) ploidy correlates well with their maturation and platelet production. […] Out of 10,000 events, the control cells only elicited only 1 cell with a ploidy of 16N and nothing thereon greater (FIG. 20A).

[3] = tested on: CD41+ cells sorted from cultured CB CD34+ cells
Procedure: FIG. 22. […] CB CD34+ cells were cultured with TPO, SCF, IL-3 for 7 days prior for CD41 selection by flow cytometry.
Cells were isolated for nestin (NSCs) and FLK-1 (hemangioblasts) before further differentiation. For cell sorting, cells were centrifuged for 5 minutes at 200 G at 4° C. and resuspended with 25 μl of CD41-FITC antibody for 30 minutes on ice. Cells are then washed gently with PBS and centrifuged for 5 minutes at 200 G at 4° C. Cells are then suspended at a concentration of 10^6 cells/ml of PBS containing 2% FBS. Cells are sorted via FACS Aria.
To test this issue and the extent of megakaryocytic population in response to the chemical induction, we cultured HUBC CD34^+ cells for 12-14 days in a media specific to megakaryocyte expansion (Nikougoftar Zarif, M., et al., Cell journal 13:173-178 (2011)). The cells were labeled with a conjugated CD41 antibody and sorted by flow cytometry sorting.

CD41− cells = conditions: same conditions as CD41+ cells
Procedure: CD41− cells were also cultured under the same conditions with the control being induced using TPO and DMSO.

CB CD34+ cells = tested on: CB CD34+ cells
Procedure: FIG. 24. […] On the right is a heat map illustrating the values of expression in terms of fold increase over controls. Green is indicative of up-regulation while red is down-regulation.
Cells were analyzed via Qiagen's PAHS-054Z hematopoiesis array containing 81 genes.

C57BL/6J mice given 5-FU = tested on: C57BL/6J mice given 5-FU
Procedure: FIG. 25. […] Fifteen 8-week old mice were given IP injections of 5-FU (250 mg/kg) on day 0. Complete blood counts (CBCs) were done on day 2, 4, 6, 9, and 12. 616452 (10 mg/kg) was introduced via IP injections on day 5, 7 and 9. The above data is a representative sample of the overall experiment. Data values from day 4 are not included.
The inventors used C57BL/6J mice to administrate with SFU, a chemotherapy agent (150 mg/kg, intraperitoneal injection). Peripheral blood (100 ul each) from injected mice is collected for assessment of the peripheral blood count using a hematology analyzer.
616452 was introduced to eight of the mice at this point and was injected every other day for a total of three doses.

[4] = Giemsa-Wright staining (FIG. 19B)
[5] = greater dose vs 10 μM standard (FIG. 20B)

Cc1cccc(-c2n[nH]cc2-c2ccc3ncccc3n2)n1 [compound 616452, 2-[3-(6-methyl-2-pyridinyl)-1H-pyrazol-4-yl]-1,5-naphthyridine]
expansion of CD34+ cells ([1]; 5 days, 10 μM): rapidly expanded the CD34+ cells | effect on CD34+CD38+ and CD34+CD38− populations ([1]; 11 days, C, 6, F at 10 μM, Z at 100 nM, listed as 6): best effect enhancing both CD34+CD38- and CD34+ and CD38+ positive cells; also recorded: ability to enhance both the population of single positive (CD34+CD38−) and double positive (CD34+CD38+) cells; also recorded: the most effects on the CD34+CD38− population | fold increase of CD34+CD41+ cells (bone marrow CD34+ cells; 4 days culture, flow cytometry): 2 fold | average cell size (bone marrow CD34+ cells; [4]): around 50 um | cell size, largest (bone marrow CD34+ cells; [4]): ≤ 90 μm | percentage of CD41 increased (bone marrow CD34+ cells; after 5 days of culture, 10 μM, N>3 experiments): 50-100% | increase in the CD41+ population (bone marrow CD34+ cells; within 4 days of culture, flow cytometry): ~100% | cluster formation at high concentrations [2]: no clusters in 4× concentrations or higher | culture composition by 8 days [2]: predominately composed of megakaryocytes | change in number of 8N, 16N and 32N cells between 8 and 12 days of induction ([2]; 10 μM): nearly doubled | days of culture until appearance of large megakaryocyte-like cells ([2]; 10 μM): 4 days | growth of the cells relative to control ([2]; 10 μM (1×)): 25-50% | megakaryocytic features (large nuclear size, cytoplasmic mass) ([2]; 4 or 8 day culture with TPO): megakaryocytes with these features were easily observed | increase of CD41 expression compared to control ([2]; 4 days induction, flow cytometry): 27% | number of cells with greater ploidy ([2]; 8 days induction): drastically increased number of cells with greater ploidy | cells of 16N ploidy out of 10,000 events ([2]; 8 days induction, PI staining): over 100 cells | CD34+CD41+ population ([2]; flow analysis (FIG. 19C)): an increase in the CD34^+ CD41^+ population | increase of the CD41+ population ([2]; flow analysis, 5 days induction (FIG. 19C)): 25-40% | fold increase over the standard in 8N cells [2, 5]: 1.68 fold | fold increase over the standard in 16N cells [2, 5]: 2.5 fold | fold increase over the standard in 32N cells [2, 5]: 6 fold | cell death ([2]; human, 48 h, 100 μM): all the cells died within 48 hours | fold increase of 4N cells over control ([2]; time dependence study): 5 fold | fold increase of 8N cells over control ([2]; time dependence study): 30 fold | fold increase of 16N cells over control ([2]; time dependence study): 80 fold | time until cells began to increase their size [3]: ≤ 2 days | cells of 8N out of 10,000 events ([3]; 8 days of induction): 2018 cells | cells of 16N out of 10,000 events ([3]; 8 days of induction): 585 cells | cells of 32N or greater out of 10,000 events ([3]; 8 days of induction): 86 cells | fold increase in 8N ([3]; 8 days, vs DMSO control): 30 fold | fold increase in the number of 4N ([3]; 8 days, vs DMSO control): 4.5 fold | cells positive in CD41 live cell stain ([3]; after 8 days of induction): 95% | cluster size ([3]; around day 4): 5-15 cells | cluster size ([3]; by day 6): 25-50 cells | cells appearing large in size by eye ([3]; day 6): approximately 80% | highest ploidy reached ([3]; within 8 days of culture): ≤ 64N | ploidy development (CD41− cells): slight increase in ploidy | PF4 expression on day 4 compared to that on day 2 (CB CD34+ cells): more than 11 fold | genes down-regulated (CB CD34+ cells; day 2 of induction): one | genes down-regulated (CB CD34+ cells; day 4 of induction): four | platelet counts by day 12 (C57BL/6J mice given 5-FU; 10 mg/kg every other day, three doses, after 5-FU): almost twice as many platelets as normal mice | white blood cell count (C57BL/6J mice given 5-FU; chemotherapy treated mice): significant improvement or recovery of the white blood cell count | platelet counts in mice not given 5-FU (C57BL/6J mice given 5-FU; mouse, in vivo): little to no change

Reference: US20150250824A1, “METHODS AND COMPOSITIONS FOR EXPANSION OF STEM CELLS AND OTHER CELLS” (The Research Foundation For The State University Of New York, priority 2014, published 2015)
